Results on six compounds are retold here after patent publication US20100029646A1, “PRODRUGS OF DIPHENYL OX-INDOL-2-ONE COMPOUNDS” (Topo Target A/S, priority 2006, published 2010).

The term melting point denotes the temperature of the solid-liquid transition. Compound `CN1CCN(CCC(=O)Oc2ccc(C3(c4ccc(F)cc4)C(=O)Nc4c3ccc(F)c4F)cc2)CC1` (stereo not drawn) [Compound 1010, 4-[6,7-Difluoro-3-(4-fluorophenyl)-2-oxo-2,3-dihydro-1H-indol-3-yl]phenyl 3-(4-methylpiperazino)propanoate] had a melting point of 149 to 151 °C.
Compound `C=CC(=O)Oc1ccc(C2(c3ccc(F)cc3)C(=O)Nc3c2ccc(F)c3C)cc1` (stereo not drawn) [Compound 1016, 4-[6-Fluoro-3-(4-fluorophenyl)-7-methyl-2-oxo-2,3-dihydro-1H-indol-3-yl]phenyl acrylate] showed a melting point of 223 to 225 °C.
In the case of `O=C(Nc1ccccc1)Oc1ccc(C2(c3ccc(OC(=O)Nc4ccccc4)cc3)C(=O)Nc3c2ccc(F)c3F)cc1`, the melting point lay within 163 to 165 °C.
In the case of `O=C1N(CCO)c2c(ccc(F)c2F)C1(c1ccc(O)cc1)c1ccc(F)cc1` (stereo not drawn) [Compound 1007, 6,7-Difluoro-3-(4-fluorophenyl)-1-(2-hydroxyethyl)-3-(4-hydroxyphenyl)-1,3-dihydro-2H-indol-2-one] it was 80 to 83 °C.
In the case of `COc1ccc(C2(c3ccc(OCOC(=O)OC(C)C)cc3)C(=O)N(COC(=O)OC(C)C)c3ccccc32)cc1` (stereo not drawn) [Compound 1011, [3-(4-{[(Isopropoxycarbonyl)oxy]methoxy}phenyl)-3-(4-methoxyphenyl)-2-oxo-2,3-dihydro-1H-indol-1-yl]methyl isopropyl carbonate] it was 63 to 65 °C; in that of `O=C(CCN1CCOCC1)Oc1ccc(C2(c3ccc(F)cc3)C(=O)Nc3c2ccc(F)c3F)cc1` (stereo not drawn) [Compound 1009, 4-[6,7-Difluoro-3-(4-fluorophenyl)-2-oxo-2,3-dihydro-1H-indol-3-yl]phenyl 3-morpholinopropanoate], 174 to 175 °C.
